This is an account of results in PubChem BioAssay (NCI).

Common to all, as to assay: growth of human tumour cells (NCI), 48 h
Assay [1] deals with NCI-H23 lung.
The test system of assay [2] is NCI-H522 lung.
Assay [3] concerns OVCAR-5 ovarian.
Assay [4] deals with SF-539 CNS.
Assay [5] has as its system SK-MEL-5 melanoma.
The subject of assay [6] is SNB-19 CNS.
For assay [7], the system named is SNB-75 CNS.
The subject of assay [8] is SR leukemia.
The test system of assay [9] is SW-620 colon.
Assay [10] deals with UO-31 renal.

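How tested: cells in 96-well plates exposed to compound for 48 hours at five concentrations. TGI: concentration producing complete growth inhibition.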 Where a SMILES comes first, the peptide text is derived from it. [ ]: non-standard residue; d: D form. The star is where a group is joined. AllylGly = C=CC[CH](N)C(=O)O; Boc = CC(C)(C)OC(=O)*; OtBu = CC(C)(C)O*

As to `CN(NC(=O)CCCl)C1=NCCN1`, the TGI in [1], in [2], in assay [3], in assay [4], in assay [5] and in [6] was > 100 µM in each case. Besides, the TGI in assay [7], in [8], in [9] and in [10] was > 100 µM throughout.
`N#Cc1c(-c2ccc([N+](=O)[O-])cc2)cc(-c2ccc(Nc3ccnc4cc(C(F)(F)F)ccc34)cc2)nc1N`: the TGI in [1] was > 62.3 µM; in assay [2], > 100 µM; in [3] it was > 73.8 µM; in [4], > 63.8 µM; in assay [5] it was > 83.3 µM; in assay [6], 34.7 µM. The TGI is 49.8 µM in assay [7], > 20 µM in [8], 59.2 µM in assay [9] and 36.5 µM in assay [10].
Regarding `C=CCC(NC(=O)C(CC(=O)OC(C)(C)C)NC(=O)OC(C)(C)C)C(=O)OC` (stereo not given) (Boc-Asp(OtBu)-[AllylGly]-OMe; configuration not given here), the TGI in assay [1] was > 100 µM; in assay [2], > 100 µM; in [3], > 100 µM; in assay [4] it was > 100 µM; in assay [5], > 57.3 µM; in assay [6], > 100 µM. Besides, the TGI in assay [7], in [8], in assay [9] and in assay [10] was > 100 µM throughout.
In the case of `CCNC1(c2cccc(C)c2)OC(C)(C)c2cccc3cccc1c23` (stereo not given), the TGI in assay [1] stood at 34 µM; in assay [2], 29.6 µM; in assay [3] it was 38.1 µM; in assay [4], 34.9 µM; in assay [5], 34.8 µM; in assay [6], 33.6 µM. Also, the TGI was found to be 30 µM in assay [7], 35.9 µM in assay [8], 36.6 µM in assay [9] and 29.8 µM in [10].
With `CN1CN(c2ccccc2)C2(CCN(CCCSc3ccccc3NC(=O)/C=C/c3ccccc3)CC2)C1=O`, the TGI in assay [1] was 25.1 µM; in assay [2], 62.4 µM; in assay [3] it was > 60.5 µM; in assay [4] it was 6.45 µM; in assay [5], 9.18 µM; in assay [6], 25.1 µM. In addition, the TGI in assay [7] was found to be 22.8 µM; in [8], 12.3 µM; in assay [9] it was 26.3 µM; in [10], 14.1 µM.
Turning to `CC(C)(C)c1nc2c(o1)C(=O)c1ccccc1C2=O`, the TGI is 1.78 µM in assay [1]; 3.85 µM in assay [2]; 4.85 µM in [3]; 3.4 µM in assay [4]; 2.9 µM in [5]; 9.81 µM in assay [6]. Also, the TGI in assay [7] was 6.7 µM; in [8], 45 µM; in [9] it was 4.4 µM; in [10] it was 6.23 µM.
For the compound `COC(OC)c1cccc2c1C(=O)CCC1(O)c3ccccc3C1C2` (stereo not given), the TGI in assay [1], in assay [2], in assay [3], in assay [4], in assay [5] and in assay [6] was > 100 µM throughout. For the same compound, the TGI in assay [7], in [8], in [9] and in [10] was > 100 µM each time.
As for `C[C@]12CC[C@@H]3c4cc(OCC(F)(F)F)c(O)cc4C(=O)C[C@H]3[C@@H]1CC[C@@H]2O`, the TGI is > 100 µM in assay [1]; > 100 µM in assay [2]; > 85.3 µM in [3]; 22.6 µM in [4]; > 82.8 µM in assay [5]; > 79.5 µM in assay [6]. The TGI in [7] is 65.7 µM; in assay [8] it was > 100 µM; in assay [9], > 100 µM; in assay [10] it was > 100 µM.
As to `O=C1Nc2cccc(Cl)c2/C1=C\c1c(Cl)nc2sccn12`, the TGI in assay [1] is 66.3 µM; in assay [2] it was > 100 µM; in [3], > 100 µM; in assay [4], 18.8 µM; in assay [5], > 100 µM; in assay [6] it was 39.7 µM. The TGI in [7] was 26.3 µM; in assay [8], > 100 µM; in [9] it was > 100 µM; in assay [10], > 100 µM.
For `COCC1OC(OC2C3=C(C(C)C)CCC3(C)/C=C3\C(CCC3(O)COC)C(C)C2O)C(O)C2OC3OC12OC3(C)C1CO1` (stereo not given), the TGI in assay [1] is > 100 µM; in assay [2], 82.4 µM; in [3] it was > 100 µM; in assay [4], > 100 µM; in [5], 67.3 µM; in assay [6], > 100 µM. The TGI in [7] is 92.7 µM; in [8] it was 75.7 µM; in assay [9] it was > 100 µM; in [10] it was 72.1 µM.
`O=C(NNC(=S)Nc1ccccc1)c1ccccc1Nc1ccccc1C(=O)NNC(=S)Nc1ccccc1`: the TGI in [1] is 41.5 µM; in assay [2] it was 46 µM; in assay [3] it was 33.6 µM; in [4], 59.8 µM; in assay [5], 58.2 µM; in [6], 72.4 µM. Moreover, the TGI in assay [7] was > 100 µM; in [8], > 100 µM; in [9] it was > 100 µM; in assay [10] it was 44.6 µM.
As for `CC1(C)CC(=O)C2=C(C1)c1c(ccc3ccccc13)NC2c1cn(Cc2ccc(Cl)cc2)c2ccccc12` (stereo not given), the TGI in assay [1], in assay [2], in assay [3], in assay [4], in [5] and in assay [6] was > 100 µM each time. Moreover, the TGI in assay [7], in [8], in [9] and in assay [10] was > 100 µM each time.
On to `CCCc1cc(=O)oc2c3c(c4c(c12)OC(C)(C)C=C4)O[C@@H](C)[C@H](C)C3=O`, for which the TGI in assay [1] was 38.4 µM; in assay [2], 29.8 µM; in assay [3], 33.2 µM; in [4] it was 37.4 µM; in assay [5], 32.3 µM; in [6] it was 37.5 µM. In addition, the TGI in assay [7] came to 30.7 µM; in assay [8] it was 41.6 µM; in assay [9], 32.2 µM; in assay [10], 31.4 µM.
`O=C1/C(=C\c2cccc(Oc3ccccc3)c2)S(=O)(=O)C(c2ccccc2)N1c1ccc(Cl)cc1` (stereo not given): the TGI is > 100 µM in assay [1]; 29.5 µM in assay [2]; 88.7 µM in [3]; 41.7 µM in [4]; 30.5 µM in assay [5]; 55.9 µM in [6]. In addition, the TGI was > 100 µM in assay [7], 40 µM in assay [8], 34.4 µM in assay [9] and 26.8 µM in assay [10].
Regarding `CON(C)C(C#N)=C(C#N)C#N`, the TGI in assay [1], in assay [2], in assay [3], in assay [4], in assay [5] and in [6] was > 10 µM in each case. In addition, the TGI in assay [7], in assay [8], in assay [9] and in assay [10] was > 10 µM in each case.
As for `COC(=O)C1=C(C(=O)OC)C2(OC(C)=O)c3ccccc3-c3ccccc3C12` (stereo not given), the TGI in assay [1] was 25.6 µM; in [2] it was 2.8 µM; in assay [3], 27.2 µM; in assay [4] it was 31.6 µM; in assay [5], 27.3 µM; in [6], > 55 µM. Also, the TGI in [7] amounted to 24.4 µM; in assay [8], 16.5 µM; in [9] it was 3.12 µM; in [10], 8.97 µM.
Consider `N#CCCN(CCC#N)c1ccc(C(N=Nc2ccccc2)=Nc2ccccc2)cc1`, for which the TGI in assay [1], in [2], in assay [3], in assay [4], in assay [5] and in assay [6] was > 100 µM in each case. The TGI in assay [7], in assay [8], in [9] and in assay [10] was > 100 µM each time.
`COc1cc(CCCOC(=O)/C=C/c2ccc(O)c(O)c2)cc(O)c1O`: the TGI in assay [1] is > 100 µM; in [2], 29.2 µM; in assay [3] it was > 100 µM; in [4], 90.2 µM; in assay [5], > 100 µM; in assay [6] it was > 100 µM. Further, the TGI was > 100 µM in assay [7], > 100 µM in [8], 35.9 µM in [9] and > 100 µM in [10].
Regarding `O=C/C(=C(/Br)I)c1ccccc1`, the TGI in [1] turned out to be 12.7 µM; in assay [2], 3.41 µM; in assay [3] it was 23.6 µM; in [4] it was 6.11 µM; in assay [5] it was 13.8 µM; in [6], 31.4 µM. Besides, the TGI was 18.7 µM in assay [7], 2.3 µM in assay [8], 2.75 µM in assay [9] and 9.32 µM in assay [10].
For `COC1=CC(=O)[C@H]2[C@H](C)C(c3ccccc3)[C@@]2(C)C1=O` (stereo not given in full), the TGI in assay [1], in assay [2], in assay [3], in assay [4], in [5] and in [6] was > 100 µM in each case. For the same compound, the TGI in [7], in assay [8], in [9] and in assay [10] was > 100 µM each time.
Regarding `Cc1cccc2c1Oc1cc(Cl)ccc1C2NC(=O)CCN1CCN(CCO)CC1` (stereo not given), the TGI in [1] was determined as 51.5 µM; in assay [2], 23.2 µM; in assay [3] it was 40.9 µM; in assay [4], 26 µM; in [5], 27 µM; in [6], 72 µM. The TGI came to 25.1 µM in assay [7], 45.1 µM in assay [8], 32.2 µM in assay [9] and 26.8 µM in [10].
As to `CN(C)CCNc1ccc2c(=O)n(CCN(C)C)c(=O)n3c4ccc([N+](=O)[O-])cc4c(=O)c1c23`, the TGI in assay [1] was 0.777 µM; in assay [2], 0.263 µM; in assay [3], 4.54 µM; in assay [4], 1.68 µM; in assay [5] it was 2.23 µM; in [6], 4.51 µM. The TGI in [7] was 1.26 µM; in assay [8] it was 0.581 µM; in assay [9], 1.78 µM; in [10] it was 4.06 µM.
`CC1(c2nc3cc(Cl)c(Cl)cc3[nH]2)CCC(CO)C(C)(C)O1` (stereo not given): the TGI in assay [1] was 76.4 µM; in assay [2], 30.3 µM; in assay [3], > 100 µM; in [4] it was 70.5 µM; in assay [5], 27.1 µM; in assay [6], > 100 µM. The TGI was 66.9 µM in assay [7], > 100 µM in [8], > 100 µM in assay [9] and 39.9 µM in [10].
On to `CC(C)(C)N(Cc1ccc2c(c1)OCO2)C(=O)/C=C\S(=O)c1ccccc1` (stereo not given), for which the TGI came to 8.79 µM in assay [1]; 2.14 µM in assay [2]; 25.1 µM in assay [3]; 6.6 µM in assay [4]; 12.9 µM in [5]; 20.7 µM in [6]. Also, the TGI in [7] was 15.1 µM; in [8] it was > 27.7 µM; in assay [9] it was 17.5 µM; in [10], 7.93 µM.
For the compound `CCCC/C=C/C1Cc2ccccc2CN1S(=O)(=O)c1ccc(C)cc1` (stereo not given), the TGI was 16.4 µM in assay [1]; 20.2 µM in [2]; 82.3 µM in [3]; 33 µM in assay [4]; 14.9 µM in assay [5]; > 100 µM in assay [6]. Also, the TGI in assay [7] is 37.5 µM; in assay [8], 41.8 µM; in assay [9] it was 24.1 µM; in assay [10] it was 18.7 µM.
As for `CC(C)(C)c1ccc(-c2nc3ccc([N+](=O)[O-])cc3c(=O)o2)cc1`, the TGI in [1] is 78.7 µM; in assay [2] it was 40.7 µM; in [3], > 100 µM; in assay [4], 43.9 µM; in assay [5] it was 74.9 µM; in assay [6], > 100 µM. In addition, the TGI is 66.1 µM in [7], 68.7 µM in [8], > 100 µM in [9] and 93.8 µM in assay [10].
